Bridge positions count the residues as written; N and C are the ends. Square brackets hold non-standard residues; d marks the D form. Peptide text beside a SMILES is read from it. Trp(1-Me) = Cn1cc(C[C@H](N)C(=O)O)c2ccccc21; dAla(4-thiazolyl) = N[C@H](Cc1cscn1)C(=O)O; 1Nal = N[C@@H](Cc1cccc2ccccc12)C(=O)O; 2Nal = N[C@@H](Cc1ccc2ccccc2c1)C(=O)O; αMeL = CC(C)C[C@](C)(N)C(=O)O; Thp = NC1(C(=O)O)CCOCC1; Aib = CC(C)(N)C(=O)O
Tests used:
[1] = tested on: IL-23 induced STAT3 signaling; test: Inhibition of IL-23 induced STAT3 signaling in HEK-Blue IL-23 cells (SEAP reporter); assay type: cell-based; conditions: human IL-23 0.25 ng/ml, read-out: Inhibition of IL-23 induced pSTAT3 (IC50 nM)
Source text: HEK-Blue™ IL-23 cells (Invivogen) are designed for the detection of bioactive human (hIL-23) and murine IL-23 (mIL-23) by monitoring the activation of the STAT3 pathway. Binding of IL-23 to its receptor on the surface of HEK-Blue™ IL-23 cells triggers a signaling cascade leading to the activation of STAT3 and the subsequent production of secreted embryonic alkaline phosphatase (SEAP). This can be readily assessed using QUANTI-Blue™ Solution, a SEAP detection reagent.
HEK-Blue™ IL-23 cells were cultured as described by Invivogen.
On the first day of assay 10 μL of the HEK-Blue IL-23 cell suspension (final concentration: 10,000 cells/well) and 10 μl of serially diluted compound solutions were dispensed into a 384-well assay plate. After pre-incubation of the reaction mixtures at 37° C./5% CO2/95% humidity for 60 minutes, 10 μl of the humanIL-23 cytokine (final concentration: 0.25 ng/ml) was added to each well for the STAT3 signaling activation. The plate was incubated overnight at 37° C./5% CO2/95% humidity.
On the second day 20 μl per well of Quanti-Blue detection solution (prepared according to the manufacture instruction) was dispensed into a new 384-well plate and followed by the transfer of 5 μl supernatant of the overnight incubated cell/sample mixtures. After incubation of 45 min at room temperature signals were measured with PHERAstar (BMG) at OD 620-655 nm.
Dose response data were fitted with XLfit.

human IL-23R = biological target: T1, human IL-23R (Homo sapiens, UniProt Q5VWK5); test: Human ELISA IL-23/IL-23R binding inhibition; conditions: human IL-23 coated, recombinant human IL-23R-Fc chimera
T1 sequence (Q5VWK5 24-355 limits assumed): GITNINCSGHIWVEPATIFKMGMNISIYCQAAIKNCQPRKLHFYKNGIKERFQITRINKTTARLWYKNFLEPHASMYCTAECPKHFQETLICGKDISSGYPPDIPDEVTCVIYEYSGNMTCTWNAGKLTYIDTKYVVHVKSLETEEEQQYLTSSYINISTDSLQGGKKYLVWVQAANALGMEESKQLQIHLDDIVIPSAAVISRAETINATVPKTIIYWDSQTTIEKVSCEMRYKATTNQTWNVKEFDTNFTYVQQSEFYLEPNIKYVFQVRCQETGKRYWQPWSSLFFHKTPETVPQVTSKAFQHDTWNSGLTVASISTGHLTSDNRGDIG
Procedure: Antagonism of peptide compounds for human interleukin-23 receptor inhibitors, was determined by an ELISA assay.
A 384-well plate was coated with 50 μl/well of human IL-23 at a final concentration of 1 μg/ml and incubated overnight at 4° C. The wells were washed 3 times with 80 μl wash buffer and blocked with 80 μl blocking buffer for 60 minutes at room temperature and washed again. 20 μl of serially diluted test peptides was added to each well and subsequently 20 μl of recombinant human IL-23R-Fc chimera at final concentration of 0.1 μg/ml. The plate was incubated for 60 minutes at room temperature. After the wells were washed, bound IL-23R-Fc was detected with goat anti-hu-lgG1-HRP antibody. Signals were visualized with QuantaBlu Fluorogenic Peroxidase Substrate.

[2] = Chemical stability (relative purity loss) of peptide compounds in buffer formulations; assay type: physicochemical
Procedure: Purity of a compound batch was determined through UHPLC/MS prior to chemical stability measurement using Method A.
For stability assessment, the target concentration was 300 μM pure compound. Therefore, solutions from solid samples were prepared in the following buffer systems with a concentration of ~300 µM compound based on the previously determined % purity. The solid samples were obtained by drying down aliquots of a freshly prepared acetonitrile stock solution using a THERMO SPEEDVAC vacuum centrifuge. The dry down time was 3 hours.
The following buffer systems were applied: • Solubility buffer system A) 100 mM phosphate buffer pH 7.4. • Solubility buffer system B) 100 mM phosphate buffer pH 6.5. • Solubility buffer system C) 100 mM HCl pH 1.2.
Prepared solutions were filtered through […] pore size and filled into sterilized glass containers under laminar flow conditions.
[…] After this time course, the samples were centrifuged for 15 min at 2500 RCF. Then 1.5 μl of the undiluted supernatant were analysed with UHPLC-UV.
The chemical stability was rated through the relative loss of purity calculated by the equation:
[(purity after 0 hours at 37° C.)(purity after 24 hours at 37° C.)]/(purity after 0 hours at 37° C.)]*100%.
The purity is calculated as [(peak area peptide)/(total peak area)]*100%.
Buffer composition: 100 mM HCl pH 1.2, 100 mM phosphate buffer pH 6.5, 100 mM phosphate buffer pH 7.4

[3] = pH 6.5 (100 mM phosphate buffer)
[4] = pH 7.4 (100 mM phosphate buffer)

SMILES: COc1ccc(C[C@@H]2NC(=O)[C@H](C(C)C)NC(=O)[C@H](CCC(N)=O)NC(=O)[C@H](Cc3c[nH]c4ccccc34)NC(=O)[C@H]([C@@H](C)O)NC(=O)[C@H](CC(N)=O)NC(=O)[C@H](NC(C)=O)CCCCNC(=O)C[C@@H](C(=O)N[C@@H](CC(N)=O)C(=O)N[C@@H](CC(N)=O)C(N)=O)NC(=O)C(C)(C)NC(=O)[C@H](Cc3ccc4ccccc4c3)NC2=O)cc1 [compound 31] (Ac-[dK]NTWQVY(Me)[2Nal][Aib]DNN-NH2; lactam 1-10)
- IC50 [1]: 128 nM
- IC50 (human IL-23R): 8.27 nM

SMILES: COc1ccc(C[C@@H]2NC(=O)[C@H](C(C)C)NC(=O)[C@H](CCC(N)=O)NC(=O)[C@H](Cc3c[nH]c4ccccc34)NC(=O)[C@H]([C@@H](C)O)NC(=O)[C@H](CC(N)=O)NC(=O)[C@H](NC(C)=O)CCCCNC(=O)C[C@@H](C(=O)N[C@@H](CC(N)=O)C(=O)N[C@@H](CC(N)=O)C(N)=O)NC(=O)C(C)(C)NC(=O)[C@H](Cc3cccc4ccccc34)NC2=O)cc1 [compound 20] (Ac-[dK]NTWQVY(Me)[1Nal][Aib]DNN-NH2; lactam 1-10)
- IC50 [1]: 10000 nM
- IC50 (human IL-23R): 15.9 nM

SMILES: COc1ccc(C[C@@H]2NC(=O)[C@H](CCCNC(=N)N)NC(=O)[C@H](CCC(N)=O)NC(=O)[C@H](Cc3c[nH]c4ccccc34)NC(=O)[C@H]([C@@H](C)O)NC(=O)[C@H](CC(N)=O)NC(=O)[C@H](NC(C)=O)CC(=O)NCCCC[C@@H](C(=O)N[C@@H](CC(N)=O)C(=O)N[C@@H](CC(N)=O)C(N)=O)NC(=O)C(C)(C)NC(=O)[C@H](Cc3ccc4ccccc4c3)NC2=O)cc1 [compound 12] (Ac-[dD]NTWQRY(Me)[2Nal][Aib]KNN-NH2; lactam 1-10)
- IC50 [1]: 6590 nM
- IC50 (human IL-23R): 14.9 nM

SMILES: COc1ccc(C[C@@H]2NC(=O)[C@H](CCCNC(=N)N)NC(=O)[C@H](CCC(N)=O)NC(=O)[C@H](Cc3cn(C)c4ccccc34)NC(=O)[C@H]([C@@H](C)O)NC(=O)[C@H](CC(N)=O)NC(=O)[C@H](NC(C)=O)CCCCNC(=O)C[C@@H](C(=O)N[C@@H](CC(N)=O)C(=O)N[C@@H](CC(N)=O)C(N)=O)NC(=O)[C@](C)(CC(C)C)NC(=O)[C@H](Cc3ccc4ccccc4c3)NC2=O)cc1 [compound 24] (Ac-[dK]NT[Trp(1-Me)]QRY(Me)[2Nal][αMeL]DNN-NH2; lactam 1-10)
- IC50 [1]: 385 nM
- IC50 (human IL-23R): 1.21 nM

SMILES: COc1ccc(C[C@@H]2NC(=O)[C@H](C)NC(=O)[C@H](CCC(N)=O)NC(=O)[C@H](Cc3c[nH]c4ccccc34)NC(=O)[C@H]([C@@H](C)O)NC(=O)[C@H](CC(N)=O)NC(=O)[C@H](NC(C)=O)CCCCNC(=O)C[C@@H](C(=O)N[C@@H](CC(N)=O)C(=O)N[C@@H](CC(N)=O)C(N)=O)NC(=O)C(C)(C)NC(=O)[C@H](Cc3ccc4ccccc4c3)NC2=O)cc1 [compound 2] (Ac-[dK]NTWQAY(Me)[2Nal][Aib]DNN-NH2; lactam 1-10)
- IC50 [1]: 234 nM
- IC50 (human IL-23R): 0.69 nM

SMILES: COc1ccc(C[C@@H]2NC(=O)[C@H](CCCNC(=N)N)NC(=O)[C@H](CCC(N)=O)NC(=O)[C@H](Cc3cn(C)c4ccccc34)NC(=O)[C@H]([C@@H](C)O)NC(=O)[C@H](CC(N)=O)NC(=O)[C@H](NC(C)=O)CCCCNC(=O)C[C@@H](C(=O)N[C@@H](CC(N)=O)C(=O)N[C@@H](CC(N)=O)C(N)=O)NC(=O)[C@@H](Cc3cscn3)NC(=O)[C@H](Cc3ccc4ccccc4c3)NC2=O)cc1 [compound 25] (Ac-[dK]NT[Trp(1-Me)]QRY(Me)[2Nal][dAla(4-thiazolyl)]DNN-NH2; lactam 1-10)
- IC50 [1]: 3830 nM
- IC50 (human IL-23R): 9.61 nM

SMILES: COc1ccc(C[C@@H]2NC(=O)[C@H](CCCNC(=N)N)NC(=O)[C@H](CCC(N)=O)NC(=O)[C@H](Cc3c[nH]c4ccccc34)NC(=O)[C@H]([C@@H](C)O)NC(=O)[C@H](CC(N)=O)NC(=O)[C@@H](NC(C)=O)CCCCNC(=O)C[C@@H](C(=O)N[C@@H](CC(N)=O)C(=O)N[C@@H](CC(N)=O)C(N)=O)NC(=O)C3(CCOCC3)NC(=O)[C@H](Cc3ccc4ccccc4c3)NC2=O)cc1 [compound 41] (Ac-KNTWQRY(Me)[2Nal][Thp]DNN-NH2; lactam 1-10)
- IC50 [1]: 221 nM
- IC50 (human IL-23R): 1.47 nM

SMILES: COc1ccc(C[C@@H]2NC(=O)C(C)(C)NC(=O)[C@H](CCC(N)=O)NC(=O)[C@H](Cc3c[nH]c4ccccc34)NC(=O)[C@H]([C@@H](C)O)NC(=O)[C@H](CC(N)=O)NC(=O)[C@H](NC(C)=O)CCCCNC(=O)C[C@@H](C(=O)N[C@@H](CC(N)=O)C(=O)N[C@@H](CC(N)=O)C(N)=O)NC(=O)C(C)(C)NC(=O)[C@H](Cc3ccc4ccccc4c3)NC2=O)cc1 [compound 32] (Ac-[dK]NTWQ[Aib]Y(Me)[2Nal][Aib]DNN-NH2; lactam 1-10)
- IC50 [1]: 320 nM
- IC50 (human IL-23R): 2.68 nM

SMILES: COc1ccc(C[C@@H]2NC(=O)[C@H](CCCNC(=N)N)NC(=O)[C@H](CCC(N)=O)NC(=O)[C@H](Cc3c[nH]c4ccccc34)NC(=O)[C@H]([C@@H](C)O)NC(=O)[C@H](CC(N)=O)NC(=O)[C@@H](NC(C)=O)CCCCNC(=O)C[C@@H](C(=O)N[C@@H](CC(N)=O)C(=O)N[C@@H](CC(N)=O)C(N)=O)NC(=O)C(C)(C)NC(=O)[C@H](Cc3cccc4ccccc34)NC2=O)cc1 [compound 9] (Ac-KNTWQRY(Me)[1Nal][Aib]DNN-NH2; lactam 1-10)
- IC50 [1]: 1610 nM
- Conc. [mg/ml] 0 h ([2]; pH 1.2 (100 mM HCl)): 1.5 mg/mL
- Conc. [mg/ml] 24 h 37° C. ([2]; pH 1.2 (100 mM HCl)): 1.1 mg/mL
- Mass Balance [%] 24 h 37° C. ([2]; pH 1.2 (100 mM HCl)): −1.9%
- Relative Purity Loss [%] 24 h 37° C. ([2]; pH 1.2 (100 mM HCl)): 22.3%
- Conc. [mg/ml] 0 h [2, 3]: 1.2 mg/mL
- Conc. [mg/ml] 24 h 37° C. [2, 3]: 1.2 mg/mL
- Mass Balance [%] 24 h 37° C. [2, 3]: −1.8%
- Relative Purity Loss [%] 24 h 37° C. [2, 3]: 1.2%
- Conc. [mg/ml] 0 h [2, 4]: 1.5 mg/mL
- Conc. [mg/ml] 24 h 37° C. [2, 4]: 1.4 mg/mL
- Mass Balance [%] 24 h 37° C. [2, 4]: −3.2%
- Relative Purity Loss [%] 24 h 37° C. [2, 4]: 2.6%

SMILES: CC(=O)N[C@@H]1CCCCNC(=O)C[C@@H](C(=O)N[C@@H](CC(N)=O)C(=O)N[C@@H](CC(N)=O)C(N)=O)NC(=O)C(C)(C)NC(=O)[C@H](Cc2ccc3ccccc3c2)NC(=O)[C@H](Cc2ccc(O)cc2)NC(=O)[C@H](CCCNC(=N)N)NC(=O)[C@H](CCC(N)=O)NC(=O)[C@H](Cc2c[nH]c3ccccc23)NC(=O)[C@H]([C@@H](C)O)NC(=O)[C@H](CC(N)=O)NC1=O [compound 4] (Ac-[dK]NTWQRY[2Nal][Aib]DNN-NH2; lactam 1-10)
- IC50 [1]: 339 nM
- Conc. [mg/ml] 0 h ([2]; pH 1.2 (100 mM HCl)): 1.4 mg/mL
- Conc. [mg/ml] 24 h 37° C. ([2]; pH 1.2 (100 mM HCl)): 1.0 mg/mL
- Mass Balance [%] 24 h 37° C. ([2]; pH 1.2 (100 mM HCl)): −2.3%
- Relative Purity Loss [%] 24 h 37° C. ([2]; pH 1.2 (100 mM HCl)): 22.9%
- Conc. [mg/ml] 0 h [2, 3]: 1.4 mg/mL
- Conc. [mg/ml] 24 h 37° C. [2, 3]: 1.3 mg/mL
- Mass Balance [%] 24 h 37° C. [2, 3]: −4.6%
- Relative Purity Loss [%] 24 h 37° C. [2, 3]: 0.7%
- Conc. [mg/ml] 0 h [2, 4]: 1.4 mg/mL
- Conc. [mg/ml] 24 h 37° C. [2, 4]: 1.3 mg/mL
- Mass Balance [%] 24 h 37° C. [2, 4]: −2.2%
- Relative Purity Loss [%] 24 h 37° C. [2, 4]: 2.7%

— patent US20260250322A1, “NEW PEPTIDES AS SELECTIVE IL-23 RECEPTOR INHIBITORS” (SANOFI, priority 2023, published 2026)
